Test results from PubChem BioAssay AID1918958 (Molecular Pharmacology Branch, DTP, NCI, 2023).

Test system: NCI-H196 complex spheroid viability
Experiment: Anticancer human tumor NCI-H196 cell line growth inhibition [LSD1];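 also: spheroids exposed to agents for 7 days before readout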;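 as to viability, T/C: 100% = DMSO vehicle control viability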
Conditions: for IC50: curve of first compound; for viability, T/C: stronger effect = lower value
Method in brief: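 Complex spheroids of tumor cells with HUVEC and human MSCs, exposed to iadademstat combined with other agents. Each agent tested in half-log steps from near clinical Cmax (else 10 microM top), DMSO ≤0.25%.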

[1] = second compound 0.1 µM, first compound 0.000316 µM
[2] = second compound 0.1 µM, first compound 0.001 µM
[3] = second compound 0.1 µM, first compound 0.00316 µM
[4] = second compound 0.1 µM, first compound 0.01 µM
[5] = second compound 0.1 µM, first compound 0.0316 µM
[6] = second compound 0.1 µM, first compound 0.1 µM
[7] = second compound 0.316 µM, first compound 0.000316 µM
[8] = second compound 0.316 µM, first compound 0.001 µM
[9] = second compound 0.316 µM, first compound 0.00316 µM
[10] = second compound 0.316 µM, first compound 0.01 µM
[11] = second compound 0.316 µM, first compound 0.0316 µM
[12] = second compound 0.316 µM, first compound 0.1 µM
[13] = second compound 1 µM, first compound 0.000316 µM
[14] = second compound 1 µM, first compound 0.001 µM
[15] = second compound 1 µM, first compound 0.00316 µM
[16] = second compound 1 µM, first compound 0.01 µM
[17] = second compound 1 µM, first compound 0.0316 µM
[18] = second compound 1 µM, first compound 0.1 µM
[19] = second compound 3.16 µM, first compound 0.000316 µM
[20] = second compound 3.16 µM, first compound 0.001 µM
[21] = second compound 3.16 µM, first compound 0.00316 µM
[22] = second compound 3.16 µM, first compound 0.01 µM
[23] = second compound 3.16 µM, first compound 0.0316 µM
[24] = second compound 3.16 µM, first compound 0.1 µM
[25] = second compound 10 µM, first compound 0.000316 µM
[26] = second compound 10 µM, first compound 0.001 µM
[27] = second compound 10 µM, first compound 0.00316 µM
[28] = second compound 10 µM, first compound 0.01 µM
[29] = second compound 10 µM, first compound 0.0316 µM
[30] = second compound 10 µM, first compound 0.1 µM

Q: For `CC(C)CC(NC(=O)C(Cc1ccccc1)NC(=O)c1cnccn1)B(O)O` (stereo not given) + NC1CC1c1ccc(-c2cccc(O)c2)cc1, which IC50 (second compound 0.1 µM) is on record?
A: Its IC50 is 0.36 nM.

Q: And the IC50 (second compound 0.316 µM)?
A: The IC50 was 0.373 nM.

Q: And the IC50 (second compound 1 µM)?
A: Its IC50 is 0.392 nM.

Q: What about the IC50 (second compound 3.16 µM) of the same compound?
A: The IC50 was 0.375 nM.

Q: And the IC50 (second compound 10 µM)?
A: The IC50 was less than 0.316 nM.

Q: And the viability, T/C [1]?
A: Its viability, T/C is 55.9%.

Q: And the viability, T/C [2]?
A: Its viability, T/C is 3.85%.

Q: What about the viability, T/C [3] of the same compound?
A: Its viability, T/C is 4.59%.

Q: And the viability, T/C [4]?
A: The viability, T/C was 4.04%.

Q: And the viability, T/C [5]?
A: The viability, T/C was 1.83%.

Q: And the viability, T/C [6]?
A: Its viability, T/C is 0.7%.

Q: And the viability, T/C [7]?
A: The viability, T/C was 57.6%.

Q: What about the viability, T/C [8] of the same compound?
A: Its viability, T/C is 4.64%.

Q: What about the viability, T/C [9] of the same compound?
A: Its viability, T/C is 3.15%.

Q: What about the viability, T/C [10] of the same compound?
A: Its viability, T/C is 2.27%.

Q: What about the viability, T/C [11] of the same compound?
A: The viability, T/C was 1.73%.

Q: What about the viability, T/C [12] of the same compound?
A: The viability, T/C was 0.55%.

Q: And the viability, T/C [13]?
A: Its viability, T/C is 60.4%.

Q: What about the viability, T/C [14] of the same compound?
A: The viability, T/C was 4.41%.

Q: And the viability, T/C [15]?
A: Its viability, T/C is 3.18%.

Q: And the viability, T/C [16]?
A: The viability, T/C was 2.18%.

Q: And the viability, T/C [17]?
A: Its viability, T/C is 1.28%.

Q: And the viability, T/C [18]?
A: The viability, T/C was 0.5%.

Q: And the viability, T/C [19]?
A: The viability, T/C was 58.1%.

Q: What about the viability, T/C [20] of the same compound?
A: The viability, T/C was 3.39%.

Q: What about the viability, T/C [21] of the same compound?
A: The viability, T/C was 2.47%.

Q: What about the viability, T/C [22] of the same compound?
A: The viability, T/C was 1.72%.

Q: And the viability, T/C [23]?
A: The viability, T/C was 1.87%.

Q: And the viability, T/C [24]?
A: Its viability, T/C is 0.31%.

Q: And the viability, T/C [25]?
A: The viability, T/C was 42.5%.

Q: What about the viability, T/C [26] of the same compound?
A: The viability, T/C was 2.54%.

Q: What about the viability, T/C [27] of the same compound?
A: The viability, T/C was 2.01%.

Q: What about the viability, T/C [28] of the same compound?
A: Its viability, T/C is 1.21%.

Q: What about the viability, T/C [29] of the same compound?
A: Its viability, T/C is 0.62%.

Q: What about the viability, T/C [30] of the same compound?
A: The viability, T/C was 0.38%.

Q: How did the IC50 (second compound 0.1 µM) turn out when `CC(C)CC(NC(=O)CNC(=O)c1cc(Cl)ccc1Cl)B1OC(=O)CC(CC(=O)O)(C(=O)O)O1` (stereo not given) + NC1CC1c1ccc(-c2cccc(O)c2)cc1 was run?
A: Its IC50 is 13.6 nM.

Q: What about the IC50 (second compound 0.316 µM) of the same compound?
A: Its IC50 is 13.4 nM.

Q: And the IC50 (second compound 1 µM)?
A: The IC50 was 10.1 nM.

Q: And the IC50 (second compound 3.16 µM)?
A: Its IC50 is 10.5 nM.

Q: What about the IC50 (second compound 10 µM) of the same compound?
A: Its IC50 is 10.2 nM.

Q: What about the viability, T/C [1] of the same compound?
A: Its viability, T/C is 99.7%.

Q: What about the viability, T/C [2] of the same compound?
A: Its viability, T/C is 100%.

Q: And the viability, T/C [3]?
A: Its viability, T/C is 97.6%.

Q: And the viability, T/C [4]?
A: The viability, T/C was 58.7%.

Q: And the viability, T/C [5]?
A: Its viability, T/C is 21.7%.

Q: What about the viability, T/C [6] of the same compound?
A: The viability, T/C was 4.21%.

Q: What about the viability, T/C [7] of the same compound?
A: The viability, T/C was 92.7%.

Q: What about the viability, T/C [8] of the same compound?
A: Its viability, T/C is 99.2%.

Q: And the viability, T/C [9]?
A: The viability, T/C was 92.8%.

Q: What about the viability, T/C [10] of the same compound?
A: The viability, T/C was 59.9%.

Q: What about the viability, T/C [11] of the same compound?
A: The viability, T/C was 19%.

Q: What about the viability, T/C [12] of the same compound?
A: Its viability, T/C is 4.26%.

Q: And the viability, T/C [13]?
A: Its viability, T/C is 97.5%.

Q: And the viability, T/C [14]?
A: Its viability, T/C is 106%.

Q: What about the viability, T/C [15] of the same compound?
A: The viability, T/C was 93.3%.

Q: And the viability, T/C [16]?
A: Its viability, T/C is 48.8%.

Q: And the viability, T/C [17]?
A: Its viability, T/C is 17%.

Q: What about the viability, T/C [18] of the same compound?
A: Its viability, T/C is 4.69%.

Q: What about the viability, T/C [19] of the same compound?
A: Its viability, T/C is 91%.

Q: What about the viability, T/C [20] of the same compound?
A: The viability, T/C was 109%.

Q: And the viability, T/C [21]?
A: Its viability, T/C is 89.2%.

Q: And the viability, T/C [22]?
A: Its viability, T/C is 49.3%.

Q: What about the viability, T/C [23] of the same compound?
A: The viability, T/C was 19.2%.

Q: And the viability, T/C [24]?
A: Its viability, T/C is 3.44%.

Q: What about the viability, T/C [25] of the same compound?
A: Its viability, T/C is 105%.

Q: What about the viability, T/C [26] of the same compound?
A: Its viability, T/C is 98.8%.

Q: And the viability, T/C [27]?
A: The viability, T/C was 84.2%.

Q: What about the viability, T/C [28] of the same compound?
A: Its viability, T/C is 52.9%.

Q: And the viability, T/C [29]?
A: Its viability, T/C is 13.4%.

Q: What about the viability, T/C [30] of the same compound?
A: Its viability, T/C is 2.91%.

Q: `COc1cc(Nc2ncc3c(n2)-c2ccc(Cl)cc2C(c2c(F)cccc2OC)=NC3)ccc1C(=O)O` + NC1CC1c1ccc(-c2cccc(O)c2)cc1 was tested. Which IC50 (second compound 0.1 µM) did it give?
A: Its IC50 is greater than 1000 nM.

Q: What about the IC50 (second compound 0.316 µM) of the same compound?
A: Its IC50 is greater than 1000 nM.

Q: And the IC50 (second compound 1 µM)?
A: Its IC50 is greater than 1000 nM.

Q: What about the IC50 (second compound 3.16 µM) of the same compound?
A: Its IC50 is greater than 1000 nM.

Q: And the IC50 (second compound 10 µM)?
A: The IC50 was greater than 1000 nM.

Q: What about the viability, T/C [3] of the same compound?
A: The viability, T/C was 88.2%.

Q: And the viability, T/C [4]?
A: The viability, T/C was 92.9%.

Q: What about the viability, T/C [5] of the same compound?
A: The viability, T/C was 105%.

Q: What about the viability, T/C [6] of the same compound?
A: Its viability, T/C is 104%.

Q: What about the viability, T/C (second compound 0.1 µM, first compound 0.316 µM) of the same compound?
A: Its viability, T/C is 121%.

Q: What about the viability, T/C (second compound 0.1 µM, first compound 1 µM) of the same compound?
A: Its viability, T/C is 143%.

Q: What about the viability, T/C [9] of the same compound?
A: Its viability, T/C is 87.3%.

Q: And the viability, T/C [10]?
A: The viability, T/C was 97.6%.

Q: What about the viability, T/C [11] of the same compound?
A: The viability, T/C was 109%.

Q: What about the viability, T/C [12] of the same compound?
A: The viability, T/C was 113%.

Q: What about the viability, T/C (second compound 0.316 µM, first compound 0.316 µM) of the same compound?
A: Its viability, T/C is 120%.

Q: And the viability, T/C (second compound 0.316 µM, first compound 1 µM)?
A: Its viability, T/C is 119%.

Q: What about the viability, T/C [15] of the same compound?
A: The viability, T/C was 93%.

Q: What about the viability, T/C [16] of the same compound?
A: Its viability, T/C is 115%.

Q: What about the viability, T/C [17] of the same compound?
A: The viability, T/C was 118%.

Q: And the viability, T/C [18]?
A: The viability, T/C was 126%.

Q: What about the viability, T/C (second compound 1 µM, first compound 0.316 µM) of the same compound?
A: The viability, T/C was 116%.

Q: What about the viability, T/C (second compound 1 µM, first compound 1 µM) of the same compound?
A: The viability, T/C was 118%.

Q: And the viability, T/C [21]?
A: The viability, T/C was 98.5%.

Q: What about the viability, T/C [22] of the same compound?
A: Its viability, T/C is 104%.

Q: And the viability, T/C [23]?
A: The viability, T/C was 108%.

Q: And the viability, T/C [24]?
A: Its viability, T/C is 110%.

Q: And the viability, T/C (second compound 3.16 µM, first compound 0.316 µM)?
A: The viability, T/C was 124%.

Q: And the viability, T/C (second compound 3.16 µM, first compound 1 µM)?
A: The viability, T/C was 112%.

Q: What about the viability, T/C [27] of the same compound?
A: Its viability, T/C is 98.3%.

Q: What about the viability, T/C [28] of the same compound?
A: The viability, T/C was 114%.

Q: And the viability, T/C [29]?
A: The viability, T/C was 112%.

Q: And the viability, T/C [30]?
A: The viability, T/C was 119%.

Q: What about the viability, T/C (second compound 10 µM, first compound 0.316 µM) of the same compound?
A: The viability, T/C was 125%.

Q: And the viability, T/C (second compound 10 µM, first compound 1 µM)?
A: The viability, T/C was 118%.
